{
  "source": "patent US20070154464A1",
  "about": "“Methods for screening for agents capable of modulating t lymphocyte function in response to a herpes simplex virus-infected cell” (priority 2003, published 2007)",
  "key": {"CTL [1]": {"system": "CTL", "test": "Mitochondrial potential of CTL by MitoTracker Red CMXRos flow cytometry", "format": "cell-based, human", "details": "1 μM, 4 h, CTL without fibroblasts", "method": "Mitochondrial potential was assessed in untreated CTL, CTL treated with 1 μM staurosporine (Sigma, St. Louis, Mo.) for 4 h, CTL incubated with uninfected fibroblasts (control) for 4 h, and CTL incubated with HSV-infected fibroblasts (inactivated) for 4 h. CTL were then stained using MitoTracker® Red CMXRos as per the manufacturer's instructions (Molecular Probes, Inc., Eugene, Oreg.). Control and inactivated CTL were also stained with antibody against CD95/Fas (clone DX2, Dako, Carpinteria, Calif.) and with the DNA-binding dye 7-amino-actinomycin D (7-AAD, Sigma, St. Louis, Mo.) and analyzed by flow cytometry."}, "HSV-2": {"system": "HSV-2", "test": "Quantitative real-time PCR (TaqMan) of HSV levels in fibroblasts and CTL", "format": "cell-based", "method": "Quantitative Real-Time PCR Using TaqMan® Chemistry: CTL were incubated with uninfected or HSV-infected fibroblasts for 4 h, removed by aspiration, and incubated for 5 h at 37° C. In the acyclovir group, fibroblasts were treated with 50 μM acyclovir for 2 h prior to infecting with HSV for 6 h. Removed CTL were then incubated with CD8-conjugated Dynabeads® (Dynal A.S., Oslo, Norway) for 30 m rocking at 4° C. and washed as directed by the manufacturer. DNA was purified from uninfected fibroblasts, HSV-infected fibroblasts, and CD8 enriched CTL using DNeasy® Tissue Kits (Qiagen, Valencia, Calif.). DNA was quantified by spectrophotometry and used as template in TaqMan® real-time PCR reactions with primers and fluorogenic probes specific for the HSV glycoprotein B gene or the cellular beta-globin gene. Reactions were carried out using an ABI 7700 Sequencer (Applied Biosystems, Foster City, Calif.), and the sequences and concentrations of the primers and probes used were as previously described (Liu et al., J. Virol. 75:11178, 2001).\nThe most sensitive technique available to detect the presence of HSV is real-time, quantitative PCR. Primers and probes against a viral gene (gB) and a cellular gene (beta globin) were used to determine the number of HSV copies per cell in HSV-infected fibroblasts and in inactivated CTL. […]"}, "CTL [2]": {"system": "CTL", "test": "Redirected cell lysis of 51Cr-labeled FcγR+ P815 target cells by anti-CD3-labeled CTL", "format": "cell-based, human", "details": "antibody 1 μg/ml for 15 m; control vs inactivated CTL; 5 h"}, "T cells": {"system": "T cells", "format": "cell-based, human"}, "CD8+ CTL clone SKH-13": {"system": "CD8+ CTL clone SKH-13", "format": "cell-based, human"}, "HSV-inactivated T cells": {"system": "HSV-inactivated T cells", "format": "cell-based, human"}},
  "note": "Read-outs that look alike come from different tables or passages of the source.",
  "data": [
    {"molecule": "CN[C@@H]1C[C@H]2O[C@@](C)([C@@H]1OC)n1c3ccccc3c3c4c(c5c6ccccc6n2c5c31)C(=O)NC4", "note": "[staurosporine]", "values": [
      {"measurement": "CMXRos signal (mitochondrial membrane potential) in CTL", "setting": "CTL [1]", "value": "significant decrease in the CMXRos signal"}
    ]},
    {"molecule": "Nc1nc2c(ncn2COCCO)c(=O)[nH]1", "note": "[acyclovir]", "values": [
      {"measurement": "# HSV Copies/cell", "setting": "HSV-2; CTL incubated 4 h on HSV-2-infected fibroblasts treated with 50 μM acyclovir, CD8-bead enriched", "value": 0.16, "unit": "Copies/cell"},
      {"measurement": "HSV copies detected per CTL", "setting": "HSV-2; fibroblasts treated with 50 μM acyclovir prior to infection, inactivated CTL", "value": "1 copy of HSV was detected per 6 CTL"}
    ]},
    {"molecule": "OKT3: monoclonal antibody raised against CD3 (clone OKT3, Ortho-McNeil)", "values": [
      {"measurement": "Lytic granule release via redirected lysis", "setting": "CTL [2]", "value": "Control but not inactivated CTL were capable of lytic granule release"},
      {"measurement": "TNF-α and IFN-γ synthesis by inactivated T cells", "setting": "T cells", "value": "failed to synthesize TNF-α and IFN-γ"}
    ]},
    {"molecule": "C/C=C/[C@H]1O[C@@](O)([C@@H](C)[C@H](O)[C@H](C)[C@H]2OC(=O)/C(OC)=C/C(C)=C/[C@@H](C)[C@@H](O)[C@@H](CC)[C@@H](O)[C@H](C)C/C(C)=C/C=C/[C@@H]2OC)C[C@@H](O)[C@@H]1C", "note": "[concanamycin]", "values": [
      {"measurement": "51Cr release from target cells by SKH-13 CTL clone", "setting": "CD8+ CTL clone SKH-13", "value": "prevented ^51Cr release from target cells"}
    ]},
    {"molecule": "IL-15: human recombinant IL-15 (Peprotech)", "values": [
      {"measurement": "Restoration of lytic function to HSV-inactivated T cells", "setting": "HSV-inactivated T cells", "value": "not to restore lytic function"}
    ]},
    {"molecule": "C[C@@H]1C[C@@H]([C@H](O)CC2CC(=O)NC(=O)C2)C(=O)[C@@H](C)C1", "note": "[CHX, cyclohexamide]", "values": [
      {"measurement": "Effect on HSV-mediated inactivation of CTL", "setting": "CD8+ CTL clone SKH-13; CTL (5 h prior) or targets exposed to 10 μg/ml", "value": "no effect on HSV-mediated inactivation"},
      {"measurement": "Effect on HSV-mediated inactivation of CTL", "setting": "CD8+ CTL clone SKH-13; fibroblasts treated with 10 μg/ml for 10 h prior to infection", "value": "abolished HSV-mediated inactivation"}
    ]},
    {"molecule": "IL-7: human recombinant IL-7 (RnDSystems) (protein, UniProt P13232 26-177, looked up) Interleukin-7: DCDIEGKDGKQYESVLMVSIDQLLDSMKEIGSNCLNNEFNFFKRHICDANKEGMFLFRAARKLRQFLKMNSTGDFDLHLLKVSEGTTILLNCTGQVKGRKPAALGEAQPTKSLEENKSLKEQKKLNDLCFLKRLLQEIKTCWNKILMGTKEH", "values": [
      {"measurement": "Restoration of lytic function to HSV-inactivated T cells", "setting": "HSV-inactivated T cells", "value": "not to restore lytic function"}
    ]}
  ]
}
